Laboratory results: publication PMC10916402, “Meropenem-ANT3310, a unique β-lactam-β-lactamase inhibitor combination with expanded antibacterial spectrum against Gram-negative pathogens including carbapenem-resistant Acinetobacter baumannii” (Antimicrobial Agents and Chemotherapy, 2024)
Read-outs that look alike come from different tables or passages of the source.

Experiments:
Test in all cases: In vitro SBL inhibition assay (nitrocefin hydrolysis), IC50
OXA-51 = OXA-51 (Acinetobacter baumannii, UniProt Q5QT35); type: biochemical, A. baumannii; conditions: 10 min preincubation, 30°C, read-out: Enzyme IC50
OXA-51, sequence (Q5QT35 entry or part of it): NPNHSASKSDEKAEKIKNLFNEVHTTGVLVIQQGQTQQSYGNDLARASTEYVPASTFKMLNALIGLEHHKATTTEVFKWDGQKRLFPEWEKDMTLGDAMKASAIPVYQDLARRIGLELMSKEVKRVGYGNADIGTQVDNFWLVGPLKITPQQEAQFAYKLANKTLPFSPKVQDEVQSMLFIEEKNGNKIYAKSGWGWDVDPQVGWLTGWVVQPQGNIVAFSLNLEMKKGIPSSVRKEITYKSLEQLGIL
Procedure: (§1) Nitrocefin (Sigma-Aldrich, St Louis, MO, USA), a chromogenic cephalosporin antibiotic (λ, 482 nm; εM, 15,000 M^−1.cm^−1), was used as a reporter substrate at 100 µM for KPC-2, OXA-23, and OXA-48, at 200 µM for OXA-24 and OXA-51, and at 50 µM for OXA-58. Enzymes were preincubated in the presence of varying concentrations of each compound (0.006 to 3000 nM, diluted twofold in dimethyl sulfoxide (DMSO) for KPC-2, OXA-23, and OXA-48 assays and 0.51 to 10,000 nM diluted threefold in DMSO for OXA-24, OXA-51, and OXA-58) for 10 min at 30°C. Nitrocefin was then added and its hydrolysis by the uninhibited enzyme fraction was followed at an absorbance wavelength of 482 nm for 10 min at 30°C using Envision UV fluorescence plate reader (Perkin Elmer, Waltham, MA, USA). Hydrolysis rate data were used to determine inhibitory activities, expressed in IC50 values [corresponding to the compound concentration (µM) required to inhibit 50% of enzymatic reaction].

OXA-58 = OXA-58 (Acinetobacter baumannii, UniProt Q2TR58); type: biochemical, A. baumannii
OXA-58, sequence (Q2TR58 19-280): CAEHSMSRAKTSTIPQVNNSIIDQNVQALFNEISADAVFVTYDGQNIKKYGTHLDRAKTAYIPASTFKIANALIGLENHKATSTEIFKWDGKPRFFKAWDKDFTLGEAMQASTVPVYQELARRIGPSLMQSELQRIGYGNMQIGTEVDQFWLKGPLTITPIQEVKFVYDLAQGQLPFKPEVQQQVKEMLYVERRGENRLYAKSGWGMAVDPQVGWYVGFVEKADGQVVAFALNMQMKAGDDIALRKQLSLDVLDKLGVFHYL
Procedure: as §1

OXA-23 = OXA-23 (Acinetobacter baumannii, UniProt Q9L4P2); type: biochemical; conditions: 10 min preincubation, 30°C, read-out: Enzyme IC50
OXA-23, sequence (Q9L4P2 18-273): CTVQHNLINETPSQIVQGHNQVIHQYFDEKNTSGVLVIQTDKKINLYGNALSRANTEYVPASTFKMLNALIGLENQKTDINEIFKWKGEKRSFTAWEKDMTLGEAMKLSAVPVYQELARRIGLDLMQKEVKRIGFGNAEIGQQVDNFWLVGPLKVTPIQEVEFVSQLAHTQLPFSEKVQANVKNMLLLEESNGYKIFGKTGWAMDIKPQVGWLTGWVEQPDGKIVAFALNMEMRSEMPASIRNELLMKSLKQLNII
Procedure: as §1

KPC-2 = KPC-2 (Klebsiella pneumoniae, UniProt Q9F663); type: biochemical
KPC-2, sequence (Q9F663 25-293 limits assumed): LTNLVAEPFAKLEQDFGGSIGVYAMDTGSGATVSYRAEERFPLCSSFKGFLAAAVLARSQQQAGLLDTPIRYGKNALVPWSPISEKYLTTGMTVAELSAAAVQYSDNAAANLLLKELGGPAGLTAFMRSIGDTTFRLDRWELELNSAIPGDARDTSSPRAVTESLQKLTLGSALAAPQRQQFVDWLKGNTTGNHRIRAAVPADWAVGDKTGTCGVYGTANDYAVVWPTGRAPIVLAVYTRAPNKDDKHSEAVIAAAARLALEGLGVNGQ
Procedure: as §1

OXA-48 = OXA-48 (Klebsiella pneumoniae, UniProt Q6XEC0); type: biochemical; conditions: 10 min preincubation, 30°C, read-out: Enzyme IC50
OXA-48, sequence (Q6XEC0 23-265, looked up, species assumed): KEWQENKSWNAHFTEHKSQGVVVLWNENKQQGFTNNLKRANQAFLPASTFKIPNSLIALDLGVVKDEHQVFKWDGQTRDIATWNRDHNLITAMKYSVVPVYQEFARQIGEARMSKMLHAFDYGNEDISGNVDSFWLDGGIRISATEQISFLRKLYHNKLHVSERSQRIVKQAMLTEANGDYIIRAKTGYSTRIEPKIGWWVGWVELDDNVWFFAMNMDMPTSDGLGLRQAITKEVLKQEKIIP
Procedure: as §1

OXA-24/40 = OXA-24/40 (Acinetobacter baumannii, UniProt Q8RLA6); type: biochemical; conditions: 10 min preincubation, 30°C, read-out: Enzyme IC50
OXA-24/40, sequence (Q8RLA6 22-275): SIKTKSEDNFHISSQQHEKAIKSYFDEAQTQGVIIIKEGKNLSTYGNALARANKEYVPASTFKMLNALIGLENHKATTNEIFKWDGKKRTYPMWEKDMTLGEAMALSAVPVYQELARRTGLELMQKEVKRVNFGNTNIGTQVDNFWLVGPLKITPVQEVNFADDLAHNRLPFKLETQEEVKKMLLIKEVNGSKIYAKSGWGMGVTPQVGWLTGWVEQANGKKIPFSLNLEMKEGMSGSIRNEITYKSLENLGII
Procedure: as §1

Structure (SMILES) | IC50 (OXA-51) [µM] | IC50 (OXA-58) [µM] | IC50 (OXA-23) [µM] | IC50 (KPC-2; KPC-2, 10 min preincubation, 30°C, read-out: Enzyme IC50) [nM] | IC50 (OXA-48) [nM] | IC50 (OXA-24/40) [µM] | IC50 (KPC-2) [nM]
NC(=O)[C@@H]1CC[C@@H]2CN1C(=O)N2OS(=O)(=O)O [Avi, avibactam] | > 10 | > 10 |  |  |  |  | 
O=C(O)C[C@@H]1CC[C@H](NC(=O)Cc2cccs2)B(O)O1 [Vab, vaborbactam] |  | > 10 | > 3 | 102 | > 3000 |  | 
NCCN[C@H]1CC[C@H](CC(=O)N[C@H]2Cc3cccc(C(=O)O)c3OB2O)CC1 [Tan, taniborbactam] | > 10 | > 10 | > 3 |  | 1560 | > 10 | 15.8
O=C(NC1CCNCC1)[C@@H]1CC[C@@H]2CN1C(=O)N2OS(=O)(=O)O (relative stereo) [Rel, relebactam] | > 10 | > 10 | > 3 |  |  | > 10 | 
